In ChEMBL document CHEMBL1148116, “Thorectandrols C, D, and E, new sesterterpenes from the marine sponge Thorectandra sp” (J Nat Prod, 2002):
Converted amounts (≈) assume the structure as drawn. The source made the active and inactive calls. The rule behind the calls is not given here.

How the values were obtained:
Format in all cases: functional, cell-based
NCI-H460 [1] = experiment: Cytotoxicity against human H460 cells at 100 ug/mL
LOX IMVI [2] = experiment: Cytotoxicity against human LOXIMVI cells at 100 ug/mL
OVCAR-3 [3] = experiment: Cytotoxicity against human OVCAR-3 cells at 100 ug/mL
Malme-3M [4] = experiment: Cytotoxicity against human MALME-3M cells at 100 ug/mL
MCF7 [5] = experiment: Cytotoxicity against human MCF7 cells at 100 ug/mL
786-0 = experiment: Cytotoxicity against human 786-O cells at 100 ug/mL
A549 [6] = experiment: Cytotoxicity against human A549 cells at 100 ug/mL
SNB-19 [7] = experiment: Cytotoxicity against human SNB19 cells at 100 ug/mL
COLO 205 [8] = experiment: Cytotoxicity against human COLO205 cells at 100 ug/mL
IGROV-1 [9] = experiment: Cytotoxicity against human IGROV1 cells at 100 ug/mL
KM12 [10] = experiment: Cytotoxicity against human KM12 cells at 100 ug/mL
MOLT-4 [11] = experiment: Cytotoxicity against human MOLT4 cells at 100 ug/mL
IGROV-1 [12] = experiment: Cytotoxicity against human IGROV1 cells
A549 [13] = experiment: Cytotoxicity against human A549 cells
NCI-H460 [14] = experiment: Cytotoxicity against human H460 cells
COLO 205 [15] = experiment: Cytotoxicity against human COLO205 cells
Malme-3M [16] = experiment: Cytotoxicity against human MALME-3M cells
KM12 [17] = experiment: Cytotoxicity against human KM12 cells
SNB-19 [18] = experiment: Cytotoxicity against human SNB19 cells
MOLT-4 [19] = experiment: Cytotoxicity against human MOLT4 cells
LOX IMVI [20] = experiment: Cytotoxicity against human LOXIMVI cells
OVCAR-3 [21] = experiment: Cytotoxicity against human OVCAR-3 cells
[22] = Cytotoxicity against human 786-O cells; details: 786-0
MCF7 [23] = experiment: Cytotoxicity against human MCF7 cells
[24] = Homo sapiens, MCF7, read-out: IC50

Row | Compound | Activity (NCI-H460 [1]) | Activity (LOX IMVI [2]) | Activity (OVCAR-3 [3]) | Activity (Malme-3M [4]) | Activity (MCF7 [5]) | Activity (786-0) | Activity (A549 [6]) | Activity (SNB-19 [7]) | IC50 (IGROV-1 [12]) [µg/mL] | IC50 (A549 [13]) [µg/mL] | IC50 (NCI-H460 [14]) [µg/mL] | IC50 (COLO 205 [15]) [µg/mL] | IC50 (Malme-3M [16]) [µg/mL] | IC50 (KM12 [17]) [µg/mL] | IC50 (SNB-19 [18]) [µg/mL] | IC50 (MOLT-4 [19]) [µg/mL] | IC50 (LOX IMVI [20]) [µg/mL] | IC50 (OVCAR-3 [21]) [µg/mL] | IC50 [22] [µg/mL] | IC50 (MCF7 [23]; [24]) [µg/mL] | further results
1 | C=C1CCC[C@H]2[C@](C)(CC/C(C)=C/C[C@@H](O)C3=CC(=O)OC3)[C@@H](C)[C@H](O)C[C@]12C | inactive | inactive | inactive | inactive | inactive | inactive | inactive | inactive |  |  |  |  |  |  |  |  |  |  |  |  | Activity (COLO 205 [8]): inactive; Activity (IGROV-1 [9]): inactive; Activity (KM12 [10]): inactive; Activity (MOLT-4 [11]): inactive
2 | CC(C)=CC1C/C(=C/CC/C(C)=C/CC/C(C)=C/C[C@@H](O)C2=CC(=O)OC2)C(=O)O1 (stereo not given in full) | inactive | inactive | inactive | inactive | inactive | inactive | inactive | inactive |  |  |  |  |  |  |  |  |  |  |  |  | Activity (COLO 205 [8]): inactive; Activity (IGROV-1 [9]): inactive; Activity (KM12 [10]): inactive; Activity (MOLT-4 [11]): inactive
3 | CC(C)=CC1C/C(=C\CC/C(C)=C/CC/C(C)=C/CCC2=CC(=O)OC2)C(=O)O1 (stereo not given) | inactive | inactive | inactive | inactive | inactive | inactive | inactive | inactive |  |  |  |  |  |  |  |  |  |  |  |  | Activity (COLO 205 [8]): inactive; Activity (IGROV-1 [9]): inactive; Activity (KM12 [10]): inactive; Activity (MOLT-4 [11]): inactive
4 | C=C1CCC[C@H]2[C@](C)(CC/C(C)=C/C=C/C3=CC(=O)OC3O)[C@@H](C)CC[C@]12C (stereo not given in full) [PALAUOLIDE] |  |  |  |  |  |  |  |  | 7.7 (≈ 20 µM) | 30 (≈ 78 µM) | 10.1 (≈ 26.3 µM) | 23.6 (≈ 61.4 µM) | 37 (≈ 96.2 µM) | 14.4 (≈ 37.4 µM) | 52.1 (≈ 135 µM) | 43.5 (≈ 113 µM) | 51.2 (≈ 133 µM) | 30 (≈ 78 µM) | 53 (≈ 138 µM) | > 100 | 
5 | C=C1CCC[C@@H]2[C@@](C)(CC/C(C)=C/C[C@@H](O)C3=CC(=O)OC3O)[C@@H](C)CC[C@@]12C (stereo not given in full) [PALAUOLOL] |  |  |  |  |  |  |  |  | 1.5 (≈ 3.73 µM) | > 100 | 1.3 (≈ 3.23 µM) | 1.1 (≈ 2.73 µM) | 0.5 (≈ 1.24 µM) | 1.8 (≈ 4.47 µM) | 2.1 (≈ 5.22 µM) | 0.6 (≈ 1.49 µM) | 2.4 (≈ 5.96 µM) | 2.2 (≈ 5.46 µM) | 1.4 (≈ 3.48 µM) | 7 (≈ 17.4 µM) | 
6 | C=C1CCC[C@H]2[C@](C)(CC/C(C)=C/C[C@H]3OC(=O)C=C3CO)[C@@H](C)CC[C@]12C [THORECTANDROL A] |  |  |  |  |  |  |  |  | 31 (≈ 80.2 µM) | 35 (≈ 90.5 µM) | 35 (≈ 90.5 µM) | 37 (≈ 95.7 µM) | 40 (≈ 103 µM) | 40 (≈ 103 µM) | 40 (≈ 103 µM) | 32 (≈ 82.8 µM) | 35 (≈ 90.5 µM) | 35 (≈ 90.5 µM) | 30 (≈ 77.6 µM) | 40 (≈ 103 µM) | 
7 | C=C1CCC[C@H]2[C@@](CC/C(C)=C/C[C@H]3OC(=O)CC3CO)(COC(C)=O)[C@@H](C)CC[C@]12C (stereo not given in full) [THORECTANDROL B] |  |  |  |  |  |  |  |  | > 100 | 35 (≈ 78.4 µM) | 96 (≈ 215 µM) | 23.6 (≈ 52.8 µM) | 30 (≈ 67.2 µM) | 94 (≈ 210 µM) | 35 (≈ 78.4 µM) | 19 (≈ 42.5 µM) | 100 (≈ 224 µM) | 70 (≈ 157 µM) | 35 (≈ 78.4 µM) | 30 (≈ 67.2 µM) | 
8 | C=C1CCC[C@H]2[C@](C)(CC/C(C)=C/C[C@@H](O)C3=CC(=O)OC3)[C@@H](C)[C@H](OC(C)=O)C[C@]12C [THORECTANDROL C] |  |  |  |  |  |  |  |  |  | 30 (≈ 67.5 µM) |  |  | 30 (≈ 67.5 µM) |  |  |  |  |  | 30 (≈ 67.5 µM) |  | Activity (LOX IMVI [20]): inactive; Activity (OVCAR-3 [21]): inactive; IC50 (MCF7 [23]; mcf7): Not Active
